Legend:
[1] = test system: rat liver cDNAs SEQ ID NOs: 1-61; format: in vivo, Han/Wistar rat; settings: Strain HW, Sex F
[2] = test system: rat liver cDNAs SEQ ID NOs: 1-61; format: in vivo, Han/Wistar rat; settings: Strain HW; for Maximum Abundance, SEQ ID NO 14, Clone ID 700330824: Sex F

Compound: CC(=O)Nc1cccc2c1-c1ccccc1C2 [4-AAF, 4-acetylaminofluorene]
- Maximum Abundance, SEQ ID NO 12, Clone ID 700062506 [1]: 3
- Maximum Abundance, SEQ ID NO 13, Clone ID 700135749 [1]: 4
- Maximum Abundance, SEQ ID NO 15, Clone ID 700024728 [2]: 3
- Maximum Abundance, SEQ ID NO 16, Clone ID 700024834 [2]: 3
- Maximum Abundance, SEQ ID NO 19, Clone ID 700062240 [2]: 5
- Maximum Abundance, SEQ ID NO 21, Clone ID 700064131 [2]: 3
- Maximum Abundance, SEQ ID NO 22, Clone ID 700065081 [2]: 3
- Maximum Abundance, SEQ ID NO 25, Clone ID 700127949 [2]: 3
- Maximum Abundance, SEQ ID NO 26, Clone ID 700132557 [2]: 7
- Maximum Abundance, SEQ ID NO 27, Clone ID 700135733 [2]: 4
- Maximum Abundance, SEQ ID NO 28, Clone ID 700135850 [2]: 3
- Maximum Abundance, SEQ ID NO 30, Clone ID 700140375 [2]: 3
- Maximum Abundance, SEQ ID NO 31, Clone ID 700140450 [2]: 8
- Maximum Abundance, SEQ ID NO 34, Clone ID 700177158 [2]: 3
- Maximum Abundance, SEQ ID NO 37, Clone ID 700182016 [2]: 3
- Maximum Abundance, SEQ ID NO 38, Clone ID 700185871 [2]: 3
- Maximum Abundance, SEQ ID NO 41, Clone ID 700248367 [2]: 3
- Maximum Abundance, SEQ ID NO 43, Clone ID 700253694 [2]: 3
- Maximum Abundance, SEQ ID NO 44, Clone ID 700303850 [2]: 3
- Maximum Abundance, SEQ ID NO 45, Clone ID 700305380 [2]: 4
- Maximum Abundance, SEQ ID NO 48, Clone ID 700363174 [2]: 3
- Maximum Abundance, SEQ ID NO 50, Clone ID 700480077 [2]: 3
- Maximum Abundance, SEQ ID NO 51, Clone ID 700483222 [2]: 3
- Maximum Abundance, SEQ ID NO 53, Clone ID 700818852 [2]: 5
- Maximum Abundance, SEQ ID NO 54, Clone ID 700937735 [2]: 8
- Maximum Abundance, SEQ ID NO 57, Clone ID 701341861 [2]: 3
- Maximum Abundance, SEQ ID NO 58, Clone ID 701574951 [2]: 3
- Maximum Abundance, SEQ ID NO 61, Clone ID 701637512 [2]: 4
- Maximum Abundance, SEQ ID NO 14, Clone ID 700330824 [2]: 3

Compound: S=C=Nc1cccc2ccccc12 [ANIT, α-naphthylisothiocyanate]
- Maximum Abundance, SEQ ID NO 12, Clone ID 700062506 [1]: 3
- Maximum Abundance, SEQ ID NO 15, Clone ID 700024728 [2]: 3
- Maximum Abundance, SEQ ID NO 16, Clone ID 700024834 [2]: 3
- Maximum Abundance, SEQ ID NO 17, Clone ID 700059927 [2]: 4
- Maximum Abundance, SEQ ID NO 18, Clone ID 700060675 [2]: 4
- Maximum Abundance, SEQ ID NO 19, Clone ID 700062240 [2]: 5
- Maximum Abundance, SEQ ID NO 20, Clone ID 700063569 [2]: 3
- Maximum Abundance, SEQ ID NO 21, Clone ID 700064131 [2]: 3
- Maximum Abundance, SEQ ID NO 23, Clone ID 700067778 [2]: 3
- Maximum Abundance, SEQ ID NO 24, Clone ID 700123633 [2]: 3
- Maximum Abundance, SEQ ID NO 29, Clone ID 700137416 [2]: 4
- Maximum Abundance, SEQ ID NO 31, Clone ID 700140450 [2]: 8
- Maximum Abundance, SEQ ID NO 32, Clone ID 700144406 [2]: 4
- Maximum Abundance, SEQ ID NO 33, Clone ID 700175249 [2]: 7
- Maximum Abundance, SEQ ID NO 34, Clone ID 700177158 [2]: 3
- Maximum Abundance, SEQ ID NO 35, Clone ID 700179766 [2]: 3
- Maximum Abundance, SEQ ID NO 36, Clone ID 700181614 [2]: 3
- Maximum Abundance, SEQ ID NO 38, Clone ID 700185871 [2]: 3
- Maximum Abundance, SEQ ID NO 39, Clone ID 700198357 [2]: 3
- Maximum Abundance, SEQ ID NO 40, Clone ID 700230123 [2]: 4
- Maximum Abundance, SEQ ID NO 41, Clone ID 700248367 [2]: 3
- Maximum Abundance, SEQ ID NO 45, Clone ID 700305380 [2]: 4
- Maximum Abundance, SEQ ID NO 48, Clone ID 700363174 [2]: 3
- Maximum Abundance, SEQ ID NO 49, Clone ID 700478138 [2]: 5
- Maximum Abundance, SEQ ID NO 50, Clone ID 700480077 [2]: 3
- Maximum Abundance, SEQ ID NO 51, Clone ID 700483222 [2]: 3
- Maximum Abundance, SEQ ID NO 53, Clone ID 700818852 [2]: 5
- Maximum Abundance, SEQ ID NO 54, Clone ID 700937735 [2]: 8
- Maximum Abundance, SEQ ID NO 55, Clone ID 701197728 [2]: 3
- Maximum Abundance, SEQ ID NO 56, Clone ID 701257766 [2]: 3
- Maximum Abundance, SEQ ID NO 57, Clone ID 701341861 [2]: 3
- Maximum Abundance, SEQ ID NO 60, Clone ID 701597659 [2]: 3
- Maximum Abundance, SEQ ID NO 61, Clone ID 701637512 [2]: 4
- Maximum Abundance, SEQ ID NO 14, Clone ID 700330824 [2]: 3

Compound: ClC(Cl)(Cl)Cl [CCI4, carbon tetrachloride]
- Maximum Abundance, SEQ ID NO 16, Clone ID 700024834 [2]: 3
- Maximum Abundance, SEQ ID NO 18, Clone ID 700060675 [2]: 4
- Maximum Abundance, SEQ ID NO 19, Clone ID 700062240 [2]: 5
- Maximum Abundance, SEQ ID NO 23, Clone ID 700067778 [2]: 3
- Maximum Abundance, SEQ ID NO 24, Clone ID 700123633 [2]: 3
- Maximum Abundance, SEQ ID NO 25, Clone ID 700127949 [2]: 3
- Maximum Abundance, SEQ ID NO 26, Clone ID 700132557 [2]: 7
- Maximum Abundance, SEQ ID NO 27, Clone ID 700135733 [2]: 4
- Maximum Abundance, SEQ ID NO 28, Clone ID 700135850 [2]: 3
- Maximum Abundance, SEQ ID NO 29, Clone ID 700137416 [2]: 4
- Maximum Abundance, SEQ ID NO 30, Clone ID 700140375 [2]: 3
- Maximum Abundance, SEQ ID NO 31, Clone ID 700140450 [2]: 8
- Maximum Abundance, SEQ ID NO 32, Clone ID 700144406 [2]: 4
- Maximum Abundance, SEQ ID NO 33, Clone ID 700175249 [2]: 7
- Maximum Abundance, SEQ ID NO 34, Clone ID 700177158 [2]: 3
- Maximum Abundance, SEQ ID NO 36, Clone ID 700181614 [2]: 3
- Maximum Abundance, SEQ ID NO 37, Clone ID 700182016 [2]: 3
- Maximum Abundance, SEQ ID NO 38, Clone ID 700185871 [2]: 3
- Maximum Abundance, SEQ ID NO 39, Clone ID 700198357 [2]: 3
- Maximum Abundance, SEQ ID NO 40, Clone ID 700230123 [2]: 4
- Maximum Abundance, SEQ ID NO 41, Clone ID 700248367 [2]: 3
- Maximum Abundance, SEQ ID NO 42, Clone ID 700250877 [2]: 3
- Maximum Abundance, SEQ ID NO 43, Clone ID 700253694 [2]: 3
- Maximum Abundance, SEQ ID NO 44, Clone ID 700303850 [2]: 3
- Maximum Abundance, SEQ ID NO 45, Clone ID 700305380 [2]: 4
- Maximum Abundance, SEQ ID NO 46, Clone ID 700313077 [2]: 3
- Maximum Abundance, SEQ ID NO 47, Clone ID 700361225 [2]: 3
- Maximum Abundance, SEQ ID NO 48, Clone ID 700363174 [2]: 3
- Maximum Abundance, SEQ ID NO 49, Clone ID 700478138 [2]: 5
- Maximum Abundance, SEQ ID NO 50, Clone ID 700480077 [2]: 3
- Maximum Abundance, SEQ ID NO 52, Clone ID 700491990 [2]: 3
- Maximum Abundance, SEQ ID NO 53, Clone ID 700818852 [2]: 5
- Maximum Abundance, SEQ ID NO 54, Clone ID 700937735 [2]: 8
- Maximum Abundance, SEQ ID NO 56, Clone ID 701257766 [2]: 3
- Maximum Abundance, SEQ ID NO 58, Clone ID 701574951 [2]: 3
- Maximum Abundance, SEQ ID NO 59, Clone ID 701578278 [2]: 3
- Maximum Abundance, SEQ ID NO 60, Clone ID 701597659 [2]: 3
- Maximum Abundance, SEQ ID NO 61, Clone ID 701637512 [2]: 4
- Maximum Abundance, SEQ ID NO 14, Clone ID 700330824 [2]: 3

Reference: patent US20030165854A1, “Marker genes responding to treatment with toxins” (priority 2000, published 2003)
